Data as given in ChEMBL document CHEMBL6153089, “Design, Synthesis, and Biological Evaluation of Thieno[3,2-d]pyrimidine Derivatives as the First Bifunctional PI3Kδ Isoform Selective/Bromodomain and Extra-Terminal Inhibitors” (J Med Chem, 2025).
One block for each compound: values may come before it.

Legend:
[1] = target: PI3-kinase p110-delta/p85-alpha (Homo sapiens) (UniProt P27986+O00329); assay: Inhibition of p110delta/p85alpha (unknown origin) at 100 nM incubated for 2 hrs in presence of ATP by ADP-kinaseGlo reagent based assay relative to control; type: protein-complex assay
[2] = target: T1, Bromodomain-containing protein 4 (Homo sapiens, UniProt O60885); assay: Inhibition of His-tagged BRD4-BD1 (unknown origin) at 10 nM incubated for 30 mins by Alphascreen assay relative to control
[3] = target: PI3-kinase p110-delta/p85-alpha (Homo sapiens, UniProt O00329); assay: Inhibition of p110delta/p85alpha (unknown origin) incubated for 2 hrs in presence of ATP by ADP-kinaseGlo reagent based assay; type: protein-complex assay
Chain of PI3-kinase p110-delta/p85-alpha (P27986 whole entry): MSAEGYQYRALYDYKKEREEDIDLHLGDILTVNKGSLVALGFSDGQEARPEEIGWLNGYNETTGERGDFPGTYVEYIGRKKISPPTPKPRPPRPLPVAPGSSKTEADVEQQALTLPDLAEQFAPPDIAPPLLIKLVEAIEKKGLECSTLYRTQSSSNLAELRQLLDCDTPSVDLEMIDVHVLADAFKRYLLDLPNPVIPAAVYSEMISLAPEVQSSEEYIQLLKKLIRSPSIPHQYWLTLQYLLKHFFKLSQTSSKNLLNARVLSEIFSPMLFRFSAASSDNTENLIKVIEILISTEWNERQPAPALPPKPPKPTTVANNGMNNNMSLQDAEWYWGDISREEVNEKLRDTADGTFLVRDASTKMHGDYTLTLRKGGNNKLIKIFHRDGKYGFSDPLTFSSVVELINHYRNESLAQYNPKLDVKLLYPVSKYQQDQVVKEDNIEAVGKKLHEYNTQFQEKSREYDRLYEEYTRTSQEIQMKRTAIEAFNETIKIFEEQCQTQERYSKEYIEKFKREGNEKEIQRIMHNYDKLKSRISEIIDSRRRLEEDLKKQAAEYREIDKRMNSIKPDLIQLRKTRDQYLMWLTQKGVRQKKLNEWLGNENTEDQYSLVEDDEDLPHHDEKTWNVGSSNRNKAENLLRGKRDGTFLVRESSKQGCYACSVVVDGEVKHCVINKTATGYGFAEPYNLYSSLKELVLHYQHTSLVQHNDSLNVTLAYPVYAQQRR
Chain of PI3-kinase p110-delta/p85-alpha (O00329 whole entry): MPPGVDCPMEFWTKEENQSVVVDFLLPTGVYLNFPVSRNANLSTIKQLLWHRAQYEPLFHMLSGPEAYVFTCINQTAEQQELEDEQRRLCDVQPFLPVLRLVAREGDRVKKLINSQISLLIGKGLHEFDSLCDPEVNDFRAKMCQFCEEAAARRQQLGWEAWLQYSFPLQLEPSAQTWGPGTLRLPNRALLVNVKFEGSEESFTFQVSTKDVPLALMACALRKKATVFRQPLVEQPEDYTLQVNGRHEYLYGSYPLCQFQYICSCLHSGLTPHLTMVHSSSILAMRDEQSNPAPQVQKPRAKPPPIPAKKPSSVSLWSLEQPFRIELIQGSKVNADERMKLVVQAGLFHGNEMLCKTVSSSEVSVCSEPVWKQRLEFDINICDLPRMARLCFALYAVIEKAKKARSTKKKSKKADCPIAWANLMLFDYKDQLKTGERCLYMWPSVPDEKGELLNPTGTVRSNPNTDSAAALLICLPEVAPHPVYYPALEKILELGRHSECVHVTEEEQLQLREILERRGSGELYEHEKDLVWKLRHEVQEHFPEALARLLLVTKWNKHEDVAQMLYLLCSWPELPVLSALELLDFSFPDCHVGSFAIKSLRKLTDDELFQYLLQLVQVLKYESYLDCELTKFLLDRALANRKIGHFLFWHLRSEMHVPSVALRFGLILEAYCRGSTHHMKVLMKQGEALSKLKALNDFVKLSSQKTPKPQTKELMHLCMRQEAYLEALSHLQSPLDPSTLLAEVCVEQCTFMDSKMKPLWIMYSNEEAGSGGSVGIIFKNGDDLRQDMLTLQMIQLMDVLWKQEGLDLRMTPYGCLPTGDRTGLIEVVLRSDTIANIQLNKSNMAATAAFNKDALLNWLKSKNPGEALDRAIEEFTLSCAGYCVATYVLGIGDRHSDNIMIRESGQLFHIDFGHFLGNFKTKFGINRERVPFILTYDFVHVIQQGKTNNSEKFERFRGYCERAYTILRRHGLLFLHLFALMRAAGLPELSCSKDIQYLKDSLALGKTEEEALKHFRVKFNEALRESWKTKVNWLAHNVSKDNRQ

[4] = target: T1, Bromodomain-containing protein 4; assay: Inhibition of His-tagged BRD4-BD1 (unknown origin) incubated for 30 mins in presence of ATP by Alphascreen assay
SUD4 [5] = assay: Antiproliferative against activity human SU-DHL-4 cells assessed as inhibition of cell growth incubated for 72 hrs by Celltiter-luminescence analysis; type: functional, cell-based; details: SU-DHL-4, 72 h
SU-DHL-6 [6] = assay: Antiproliferative against activity human SU-DHL-6 cells assessed as inhibition of cell growth incubated for 72 hrs by Celltiter-luminescence analysis; type: functional, cell-based; details: SU-DHL-6, 72 h
[7] = target: Phosphatidylinositol 4,5-bisphosphate 3-kinase catalytic subunit beta isoform (Homo sapiens, UniProt P42338); assay: Inhibition of PI3Kbeta (unknown origin) incubated for 2 hrs in presence of ATP by ADP-kinaseGlo reagent based assay
Chain of Phosphatidylinositol 4,5-bisphosphate 3-kinase catalytic subunit beta isoform (P42338 whole entry, canonical isoform): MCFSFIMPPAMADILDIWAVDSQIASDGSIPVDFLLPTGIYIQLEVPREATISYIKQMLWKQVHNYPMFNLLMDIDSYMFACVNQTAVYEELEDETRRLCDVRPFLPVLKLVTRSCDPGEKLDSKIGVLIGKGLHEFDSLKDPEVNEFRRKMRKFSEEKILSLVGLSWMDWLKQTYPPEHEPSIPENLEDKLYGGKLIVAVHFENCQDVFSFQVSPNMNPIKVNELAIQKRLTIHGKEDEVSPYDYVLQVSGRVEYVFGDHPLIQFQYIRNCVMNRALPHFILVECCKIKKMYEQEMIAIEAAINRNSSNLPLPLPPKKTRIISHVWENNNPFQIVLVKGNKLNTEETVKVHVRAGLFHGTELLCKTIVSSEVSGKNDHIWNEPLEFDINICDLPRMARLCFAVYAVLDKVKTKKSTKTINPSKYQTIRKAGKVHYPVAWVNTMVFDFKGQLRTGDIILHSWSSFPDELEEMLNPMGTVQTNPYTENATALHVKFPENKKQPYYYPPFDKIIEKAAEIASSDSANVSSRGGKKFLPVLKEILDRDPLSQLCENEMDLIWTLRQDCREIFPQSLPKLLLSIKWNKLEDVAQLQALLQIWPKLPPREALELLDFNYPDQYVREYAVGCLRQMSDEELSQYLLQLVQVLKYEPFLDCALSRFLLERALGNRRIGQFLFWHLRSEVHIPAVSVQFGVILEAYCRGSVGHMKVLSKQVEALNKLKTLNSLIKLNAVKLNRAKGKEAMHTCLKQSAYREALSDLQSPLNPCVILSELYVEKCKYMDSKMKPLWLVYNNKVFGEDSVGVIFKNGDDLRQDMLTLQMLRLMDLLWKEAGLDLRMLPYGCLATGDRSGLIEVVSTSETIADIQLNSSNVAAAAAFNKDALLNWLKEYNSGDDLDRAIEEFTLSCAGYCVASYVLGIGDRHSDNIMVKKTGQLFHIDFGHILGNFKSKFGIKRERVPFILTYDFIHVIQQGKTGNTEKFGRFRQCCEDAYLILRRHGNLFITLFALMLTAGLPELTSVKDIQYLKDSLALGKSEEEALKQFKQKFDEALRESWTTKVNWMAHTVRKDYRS

[8] = target: Phosphatidylinositol 4,5-bisphosphate 3-kinase catalytic subunit gamma isoform (Homo sapiens, UniProt P48736); assay: Inhibition of PI3Kgamma (unknown origin) incubated for 2 hrs in presence of ATP by ADP-kinaseGlo reagent based assay
[9] = target: Serine/threonine-protein kinase mTOR (Homo sapiens, UniProt P42345); assay: Inhibition of mTOR (unknown origin) incubated for 2 hrs in presence of ATP by ADP-kinaseGlo reagent based assay
[10] = target: Bromodomain-containing protein 2 (Homo sapiens, UniProt P25440); assay: Inhibition of His-tagged BRD2-BD1 (unknown origin) incubated for 30 mins in presence of ATP by Alphascreen assay
Chain of Bromodomain-containing protein 2 (P25440 whole entry): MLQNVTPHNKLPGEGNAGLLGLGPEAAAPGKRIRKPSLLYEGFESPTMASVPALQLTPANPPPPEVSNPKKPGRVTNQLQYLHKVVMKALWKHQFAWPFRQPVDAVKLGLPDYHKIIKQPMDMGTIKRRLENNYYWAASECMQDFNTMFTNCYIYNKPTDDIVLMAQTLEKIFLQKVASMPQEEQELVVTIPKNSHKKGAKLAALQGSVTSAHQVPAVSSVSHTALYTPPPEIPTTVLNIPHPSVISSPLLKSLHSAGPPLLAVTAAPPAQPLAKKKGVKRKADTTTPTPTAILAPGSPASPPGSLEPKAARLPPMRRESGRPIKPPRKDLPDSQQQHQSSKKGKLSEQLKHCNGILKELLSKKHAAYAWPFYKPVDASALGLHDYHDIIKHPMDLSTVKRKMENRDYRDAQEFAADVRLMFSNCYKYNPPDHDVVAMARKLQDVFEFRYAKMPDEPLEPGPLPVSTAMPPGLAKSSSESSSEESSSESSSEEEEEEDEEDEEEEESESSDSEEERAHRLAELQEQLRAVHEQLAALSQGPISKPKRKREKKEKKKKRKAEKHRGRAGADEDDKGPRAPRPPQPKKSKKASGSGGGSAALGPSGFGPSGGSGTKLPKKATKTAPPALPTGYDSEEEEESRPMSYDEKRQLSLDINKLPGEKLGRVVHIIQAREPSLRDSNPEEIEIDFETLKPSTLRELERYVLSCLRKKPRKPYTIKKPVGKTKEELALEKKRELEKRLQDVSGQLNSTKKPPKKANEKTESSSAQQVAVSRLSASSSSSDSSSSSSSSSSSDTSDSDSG

[11] = target: Bromodomain-containing protein 3 (Homo sapiens, UniProt Q15059); assay: Inhibition of His-tagged BRD3-BD1 (unknown origin) incubated for 30 mins in presence of ATP by Alphascreen assay
Chain of Bromodomain-containing protein 3 (Q15059 whole entry): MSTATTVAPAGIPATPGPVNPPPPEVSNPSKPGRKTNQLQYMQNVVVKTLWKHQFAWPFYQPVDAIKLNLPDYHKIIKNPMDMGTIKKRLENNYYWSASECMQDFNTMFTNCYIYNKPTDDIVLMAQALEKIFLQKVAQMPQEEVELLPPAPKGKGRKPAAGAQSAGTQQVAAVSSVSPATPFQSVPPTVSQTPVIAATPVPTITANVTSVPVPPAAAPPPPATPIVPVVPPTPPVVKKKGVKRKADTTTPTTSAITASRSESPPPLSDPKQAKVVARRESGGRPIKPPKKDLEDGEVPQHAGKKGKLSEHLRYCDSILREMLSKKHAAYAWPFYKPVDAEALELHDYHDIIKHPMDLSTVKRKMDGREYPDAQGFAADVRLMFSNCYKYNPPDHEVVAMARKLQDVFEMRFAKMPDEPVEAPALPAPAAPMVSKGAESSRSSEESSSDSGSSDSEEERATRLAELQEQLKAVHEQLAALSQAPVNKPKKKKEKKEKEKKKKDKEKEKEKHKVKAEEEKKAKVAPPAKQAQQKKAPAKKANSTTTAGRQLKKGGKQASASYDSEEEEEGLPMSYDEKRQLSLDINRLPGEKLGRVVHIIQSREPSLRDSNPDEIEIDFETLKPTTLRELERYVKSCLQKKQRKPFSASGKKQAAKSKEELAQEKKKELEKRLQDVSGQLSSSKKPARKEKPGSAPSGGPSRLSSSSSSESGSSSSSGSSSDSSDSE

[12] = target: T1, Bromodomain-containing protein 4; assay: Inhibition of His-tagged BRD4-BD2 (unknown origin) incubated for 30 mins in presence of ATP by Alphascreen assay
[13] = target: Bromodomain testis-specific protein (Homo sapiens, UniProt Q58F21); assay: Inhibition of His-tagged BRDT-BD1 (unknown origin) incubated for 30 mins in presence of ATP by Alphascreen assay
HUVEC = assay: Cytotoxicity against HUVEC cells assessed as inhibition of cell growth at 1 uM incubated for 72 hrs by Celltiter-luminescence analysis; type: toxicity, cell-based; details: human
WI-38 = assay: Cytotoxicity against human WI-38 cells assessed as inhibition of cell growth at 1 uM incubated for 72 hrs by Celltiter-luminescence analysis; type: toxicity, cell-based; details: wi-38, 72 h
SUD4 [14] = assay: Induction of apoptosis in human SU-DHL-4 cells assessed as late apoptotic cells at 1 uM incubated for 24 hrs by Annexin V-FITC/PI staining based flow cytometric analysis (reference value: 6.74 %); type: functional
SUD4 [15] = assay: Induction of apoptosis in human SU-DHL-4 cells assessed as viable cells at 1 uM incubated for 24 hrs by Annexin V-FITC/PI staining based flow cytometric analysis (reference value: 65.2 %); type: functional; details: read-out: Activity
SUD4 [16] = assay: Induction of apoptosis in human SU-DHL-4 cells assessed as early apoptotic cells at 1 uM incubated for 24 hrs by Annexin V-FITC/PI staining based flow cytometric analysis (reference value: 25.3 %); type: functional
SUD4 [17] = assay: Induction of apoptosis in human SU-DHL-4 cells assessed as necrotic cells at 1 uM incubated for 24 hrs by Annexin V-FITC/PI staining based flow cytometric analysis (reference value: 0.642 %); type: functional
SU-DHL-6 [18] = assay: Induction of apoptosis in human SU-DHL-6 cells assessed as viable cells at 1 uM incubated for 24 hrs by Annexin V-FITC/PI staining based flow cytometric analysis (reference value: 61.2 %); type: functional; details: read-out: Activity
SU-DHL-6 [19] = assay: Induction of apoptosis in human SU-DHL-6 cells assessed as early apoptotic cells at 1 uM incubated for 24 hrs by Annexin V-FITC/PI staining based flow cytometric analysis (reference value: 32.1 %); type: functional
SU-DHL-6 [20] = assay: Induction of apoptosis in human SU-DHL-6 cells assessed as late apoptotic cells at 1 uM incubated for 24 hrs by Annexin V-FITC/PI staining based flow cytometric analysis (reference value: 6.43 %); type: functional
SU-DHL-6 [21] = assay: Induction of apoptosis in human SU-DHL-6 cells assessed as necrotic cells at 1 uM incubated for 24 hrs by Annexin V-FITC/PI staining based flow cytometric analysis (reference value: 0.246 %); type: functional
SU-DHL-6 [22] = assay: Antitumor activity against human SU-DHL-6 cells xenografted in female BALB/c mouse model assessed as tumor growth inhibition at 20 mg/kg, po administered once daily via gavage for 15 days relative to control; type: functional; details: SU-DHL-6, 360 h, time 15 day, read-out: TGI
[23] = Toxicity in female BALB/c mouse model xenografted with human SU-DHL-6 cells assessed as effect on body weight at 20 mg/kg, po administered once daily via gavage for 15 days; type: organism-based; details: in vivo, 360 h, time 15 day
[24] = Toxicity in female BALB/c mouse model xenografted with human SU-DHL-6 cells assessed as effect on heart histopathology at 20 mg/kg, po administered once daily via gavage for 15 days by H and E staining based analysis; type: organism-based; details: in vivo, 360 h, time 15 day
[25] = Toxicity in female BALB/c mouse model xenografted with human SU-DHL-6 cells assessed as effect on liver histopathology at 20 mg/kg, po administered once daily via gavage for 15 days by H and E staining based analysis; type: organism-based; details: in vivo, 360 h, time 15 day
[26] = Toxicity in female BALB/c mouse model xenografted with human SU-DHL-6 cells assessed as effect on spleen histopathology at 20 mg/kg, po administered once daily via gavage for 15 days by H and E staining based analysis; type: organism-based; details: in vivo, 360 h, time 15 day
[27] = Toxicity in female BALB/c mouse model xenografted with human SU-DHL-6 cells assessed as effect on lung histopathology at 20 mg/kg, po administered once daily via gavage for 15 days by H and E staining based analysis; type: organism-based; details: in vivo, 360 h, time 15 day
[28] = Toxicity in female BALB/c mouse model xenografted with human SU-DHL-6 cells assessed as effect on kidney histopathology at 20 mg/kg, po administered once daily via gavage for 15 days by H and E staining based analysis; type: organism-based; details: in vivo, 360 h, time 15 day
SU-DHL-6 [29] = assay: Antitumor activity against human SU-DHL-6 cells xenografted in female BALB/c mouse model assessed as downregulation of Ki67 level in tumor at 20 mg/kg, po administered once daily via gavage for 15 days by immunohistochemical staining based analysis; type: functional, organism-based; details: time 15.0 day

Structure (SMILES): CC(=O)Nc1cc(-c2nc(N3CCOCC3)c3sc(CN4CCN(CC5CC5)CC4)cc3n2)cn(C)c1=O
inhibition [1]: 21.5%
inhibition [2]: 3%

Structure (SMILES): C[C@@H](O)C(=O)N1CCN(Cc2cc3nc(-c4cn(C)c(=O)c5[nH]ccc45)nc(N4CCOCC4)c3s2)CC1
inhibition [1]: 27.4%
inhibition [2]: 38.2%

Structure (SMILES): C[C@@H](N)C(=O)N1CCN(Cc2cc3nc(-c4cn(C)c(=O)c5[nH]ccc45)nc(N4CCOCC4)c3s2)CC1
inhibition [1]: 16.2%
inhibition [2]: 56.8%

Structure (SMILES): Cn1ccc(-c2nc(N3CCOCC3)c3sc(CN4CCN(CC5CC5)CC4)cc3n2)cc1=O
inhibition [1]: 24.1%
inhibition [2]: 4.6%

Structure (SMILES): Cn1cc(-c2nc(N3CCOCC3)c3sc(CN4CCC(O)CC4)cc3n2)c2cc[nH]c2c1=O
inhibition [1]: 19.4%
inhibition [2]: 36%

Continued, in another order:

inhibition [1]: 25.7%
inhibition [2]: 32.6%
Structure (SMILES): Cn1cc(-c2nc(N3CCOCC3)c3sc(CN4CCN(CC5CC5)CC4)cc3n2)ccc1=O

IC50 [3]: 0.158 µM
IC50 [4]: 0.312 µM
IC50 (SU-DHL-6 [6]): 0.518 µM
IC50 [7]: 0.129 µM
IC50 [8]: 0.251 µM
IC50 [9]: 0.599 µM
IC50 [10]: 0.383 µM
IC50 [11]: 0.303 µM
IC50 [12]: 0.235 µM
IC50 [13]: 1.23 µM
Structure (SMILES): O=c1cc(N2CCOCC2)oc2c(-c3ccc4c(c3)OCCO4)csc12
IC50 (SUD4 [5]): 1.88 µM
Activity (HUVEC): Toxic
Activity (WI-38): Toxic
Activity (SUD4 [14]): 10.4%
viability at 1 µM (SUD4 [15]): 61.7%
Activity (SUD4 [16]): 26.8%
Activity (SUD4 [17]): 1.05%
viability at 1 µM (SU-DHL-6 [18]): 60.2%
Activity (SU-DHL-6 [19]): 33.6%
Activity (SU-DHL-6 [20]): 5.53%
Activity (SU-DHL-6 [21]): 0.61%
inhibition in vivo at 20 mg/kg (SU-DHL-6 [22]): 62.3%
Activity [23]: Non-toxic
Activity [24]: Non-toxic
Activity [25]: Non-toxic
Activity [26]: Non-toxic
Activity [27]: Non-toxic
Activity [28]: Non-toxic
Activity (SU-DHL-6 [29]): Active; More Effective Than Sf2523

inhibition [1]: 7.7%
inhibition [2]: 18.1%
Structure (SMILES): Cn1cc(-c2nc(N3CCOCC3)c3sc(CN4CCN(CC5CC5)CC4)cc3n2)cc(N)c1=O

inhibition [1]: 46.9%
inhibition [2]: 44.2%
IC50 [3]: 0.108 µM
IC50 [4]: 0.011 µM
IC50 (SU-DHL-6 [6]): 0.079 µM
Structure (SMILES): CC(=O)N1CCN(Cc2cc3nc(-c4cn(C)c(=O)c5[nH]ccc45)nc(N4CCOCC4)c3s2)CC1
IC50 (SUD4 [5]): 0.166 µM

inhibition [1]: 45.7%
inhibition [2]: 32.7%
IC50 [3]: 0.096 µM
IC50 [4]: 0.015 µM
IC50 (SU-DHL-6 [6]): 0.27 µM
Structure (SMILES): Cn1cc(-c2nc(N3CCOCC3)c3sc(CN4CCN(S(C)(=O)=O)CC4)cc3n2)c2cc[nH]c2c1=O
IC50 (SUD4 [5]): 0.665 µM

inhibition [1]: 33.2%
inhibition [2]: 39.9%
IC50 [3]: 0.206 µM
IC50 [4]: 0.011 µM
Structure (SMILES): C[C@H](O)C(=O)N1CCN(Cc2cc3nc(-c4cn(C)c(=O)c5[nH]ccc45)nc(N4CCOCC4)c3s2)CC1
